Assay results as given in patent US20230270653A1, “USE OF TREHALOSE FOR INHIBITING AILMENT INDUCING MICROORGANISMS” (Conopco, Inc., d/b/a UNILEVER, priority 2020, published 2023).

What was measured:
[1] = tested on: S. aureus; assay: Overlay assay, Log10 reduction (Kill) of S. aureus; format: cell-based, Staphylococcus aureus
Source text: (§1) Staphylococcus hominis (S. hominis, ATCC 27844), Cutibacterium acnes (C. acnes, ATCC6919), Staphylococcus aureus (S. aureus, ATCC 6538), and Malassezia restricta (M. restricta, ATCC 7877) were inoculated from freezer stock onto agar plates according to culture conditions as shown in table 1. Then, one loop of microbes from agar plate was inoculated into a liquid culture system according to the culture condition as shown in table 1. M. restricta were reinoculated on MLNA plate twice before use. Cell density of bacteria (S. hominis, C. acnes and S. aureus) was adjusted to concentration at 10^8 cfu/mL for further use based on absorption at 600 nm. Cell density of M. restricta was adjusted to concentration at 10^8 cfu/mL for further use based on absorption at 610 nm.
(§2) On Day 0, 15 mL of TSA containing (1) 2% Trehalose and 10^6 cfu/ml S. hominis, (2) 10^6 cfu/ml S. hominis alone (without trehalose), and (3) 2% trehalose alone (without S. hominis) was solidified in a […] petri dish and cultured at 37° C. for four days. TSA agar without S. hominis nor trehalose was prepared in parallel as control. […]
(§3) At the end, Log10 reduction (Kill) were determined for the targeted microorganisms, M. restricta and S. aureus on plate (1), (2), and (3) as compared to the respective M. restricta or S. aureus growth on control plate

[2] = tested on: M. restricta; assay: Overlay assay, Log10 reduction (Kill) of M. restricta; format: cell-based, Malassezia restricta
Source text: as §1, §2, §3

## OC[C@H]1O[C@H](O[C@H]2O[C@H](CO)[C@@H](O)[C@H](O)[C@H]2O)[C@H](O)[C@@H](O)[C@@H]1O [C, trehalose]
[1]; TSA plate cultured at 37° C. for four days, TSA overlay, serially diluted S. aureus (ATCC 6538) dotted on, compared to growth on control plate
  Log10 reduction (Kill) of S. aureus: 1

## OC[C@H]1O[C@H](O[C@H]2O[C@H](CO)[C@@H](O)[C@H](O)[C@H]2O)[C@H](O)[C@@H](O)[C@@H]1O [A, trehalose]
[2]; TSA plate cultured at 37° C. for four days, MLNA overlay, serially diluted M. restricta (ATCC 7877) dotted on, compared to growth on control plate
  Log10 reduction (Kill) of M. restricta: 0

## OC[C@H]1O[C@H](O[C@H]2O[C@H](CO)[C@@H](O)[C@H](O)[C@H]2O)[C@H](O)[C@@H](O)[C@@H]1O [Trehalose]
[2]; in the presence of S. hominis, conclusion from Table 3
  effectiveness against Malassezia restricta: effective
[1]; in the presence of S. hominis, conclusion from Table 4
  effectiveness against Staphylococcus aureus: effective
